Measurements as given in paper PMC9721424, “Novel N-methylsulfonyl-indole derivatives: biological activity and COX-2/5-LOX inhibitory effect with improved gastro protective profile and reduced cardio vascular risks” (Journal of Enzyme Inhibition and Medicinal Chemistry, 2022).
Where “and” joins values, the source holds several entries; their conditions need not be identical. Equal entries are not always repeated. Where two headings read alike, the source gives them in different places.

Tests used:
DPPH free radical assay = type: biochemical; settings: 540 nm, relative to Trolox; for DPPH test results (µM trolox equivalent/ 1mg sample ± SD): 30 min; for DPPH anti-oxidant activity: values in text
Protocol: Preparation of samples was occurred at the following concentrations: Samples 3a, 4a, 5b, 5d and 5e at final concentrations of 0.5 mg/ml in methanol: DMSO 9:1 v/v. Samples 4b and 4d at final concentrations 0.025 mg/ml in methanol: DMSO 9:1 v/v, sample 5a at final concentrations 0.25 mg/ml in methanol: DMSO 9:1 v/v, Sample 4c, 5c and 4e at final concentrations 0.05 mg/ml in methanol: DMSO 9:1 v/v, sample 3b at final concentration 0.75 mg/ml methanol: DMSO 9:1 v/v. A stock solution of 100 µM concentration of Trolox, a standard used in this experiment, was prepared in methanol from which seven concentrations were prepared, including 50, 40, 30, 20, 15, 10 and 5 µM.
The DPPH (2,2-diphenyl-1-picryl-hydrazyl-hydrate) free radical assay was carried out according to the method of Boly et al. 2016[39]. Briefly, freshly prepared DPPH reagent (100 µl, 0.1% in methanol) was added to 100 µl of the sample on 96 well plates (n = 6). The reaction was incubated at room temp for 30 min in the dark. After completion of the incubation time, the reduction in DPPH colour intensity was measured at 540 nm. Data obtained was represented as means ± SD, according to the following equation, percentage inhibition = [(Average absorbance of blank – average absorbance of the test)/(Average absorbance of blank)] *100. The results were recorded using a microplate reader, FluoStar Omega.
Microsoft Excel® was used to analyse the obtained results. The IC50 values were calculated using Graph pad Prism 6® by converting the concentrations to their logarithmic value and selecting the non-linear inhibitor regression equation (log (inhibitor) vs. normalised response – variable slope equation). The methods used and the final test report (R-SO7320) were obtained from Nawah Scientific.

COX-2 = target: T1, COX-2 (Ovis aries, UniProt P79208); assay: COX-2 inhibition, enzyme immune assay (EIA) kit; type: biochemical, ovine; settings: for S.I (IC50 COX-1/IC50 COX-2): COX-2 selectivity index; for SI: lab report, COX1/COX2
T1 sequence (P79208 17-603): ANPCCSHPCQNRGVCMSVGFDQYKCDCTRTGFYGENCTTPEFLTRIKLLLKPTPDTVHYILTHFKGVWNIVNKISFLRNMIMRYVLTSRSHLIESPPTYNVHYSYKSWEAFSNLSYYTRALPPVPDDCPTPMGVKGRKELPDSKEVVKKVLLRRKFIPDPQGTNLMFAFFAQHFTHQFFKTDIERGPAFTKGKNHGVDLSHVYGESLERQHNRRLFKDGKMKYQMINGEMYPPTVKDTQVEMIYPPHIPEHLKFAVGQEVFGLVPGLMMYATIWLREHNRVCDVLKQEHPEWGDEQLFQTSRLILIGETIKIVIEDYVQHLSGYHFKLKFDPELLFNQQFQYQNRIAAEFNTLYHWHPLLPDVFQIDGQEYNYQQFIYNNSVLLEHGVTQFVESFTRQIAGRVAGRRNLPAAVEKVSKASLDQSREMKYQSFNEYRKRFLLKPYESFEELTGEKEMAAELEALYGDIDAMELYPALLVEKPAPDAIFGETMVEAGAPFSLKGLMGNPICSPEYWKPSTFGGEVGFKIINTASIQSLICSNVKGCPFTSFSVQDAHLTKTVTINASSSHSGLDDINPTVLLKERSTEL

5-LOX enzyme = target: T2, 5-LOX enzyme (Homo sapiens, UniProt P09917); assay: 5-LOX inhibition, Human Lipoxygenase Inhibitor Screening Assay (EIA) kit; type: biochemical
T2 construct: purchased Cayman Chemical K980-100
T2 sequence (P09917 1-674): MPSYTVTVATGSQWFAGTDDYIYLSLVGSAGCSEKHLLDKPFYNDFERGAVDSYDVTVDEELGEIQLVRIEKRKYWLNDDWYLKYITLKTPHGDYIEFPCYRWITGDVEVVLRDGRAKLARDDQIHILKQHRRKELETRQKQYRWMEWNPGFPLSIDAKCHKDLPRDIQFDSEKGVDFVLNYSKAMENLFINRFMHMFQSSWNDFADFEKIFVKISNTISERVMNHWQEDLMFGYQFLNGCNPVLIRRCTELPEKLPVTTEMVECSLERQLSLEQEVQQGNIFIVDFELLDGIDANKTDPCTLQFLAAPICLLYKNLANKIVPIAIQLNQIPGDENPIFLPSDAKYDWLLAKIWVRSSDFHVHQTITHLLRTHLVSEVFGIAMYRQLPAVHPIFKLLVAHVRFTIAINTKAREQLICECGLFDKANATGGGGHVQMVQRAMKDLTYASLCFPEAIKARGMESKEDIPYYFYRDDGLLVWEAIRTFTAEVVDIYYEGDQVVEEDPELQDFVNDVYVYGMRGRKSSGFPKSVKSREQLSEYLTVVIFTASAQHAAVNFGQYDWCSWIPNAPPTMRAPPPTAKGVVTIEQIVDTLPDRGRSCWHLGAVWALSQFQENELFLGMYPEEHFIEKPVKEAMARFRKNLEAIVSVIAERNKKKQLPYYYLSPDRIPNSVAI
Protocol: The ability of the test compounds to inhibit the 5-LOX enzyme (IC50 value, μM) was detected using the Cayman Human Lipoxygenase Inhibitor Screening Assay (EIA) kit (catalog no. K980-100, Cayman Chemical). The IC50 values of test compounds were measured in µM according to the manufacturer’s instructions and reported method.

ovine COX-1 = target: T3, ovine COX-1 (Ovis aries, UniProt P05979); assay: COX-1 inhibition, enzyme immune assay (EIA) kit
T3 sequence (P05979 25-600): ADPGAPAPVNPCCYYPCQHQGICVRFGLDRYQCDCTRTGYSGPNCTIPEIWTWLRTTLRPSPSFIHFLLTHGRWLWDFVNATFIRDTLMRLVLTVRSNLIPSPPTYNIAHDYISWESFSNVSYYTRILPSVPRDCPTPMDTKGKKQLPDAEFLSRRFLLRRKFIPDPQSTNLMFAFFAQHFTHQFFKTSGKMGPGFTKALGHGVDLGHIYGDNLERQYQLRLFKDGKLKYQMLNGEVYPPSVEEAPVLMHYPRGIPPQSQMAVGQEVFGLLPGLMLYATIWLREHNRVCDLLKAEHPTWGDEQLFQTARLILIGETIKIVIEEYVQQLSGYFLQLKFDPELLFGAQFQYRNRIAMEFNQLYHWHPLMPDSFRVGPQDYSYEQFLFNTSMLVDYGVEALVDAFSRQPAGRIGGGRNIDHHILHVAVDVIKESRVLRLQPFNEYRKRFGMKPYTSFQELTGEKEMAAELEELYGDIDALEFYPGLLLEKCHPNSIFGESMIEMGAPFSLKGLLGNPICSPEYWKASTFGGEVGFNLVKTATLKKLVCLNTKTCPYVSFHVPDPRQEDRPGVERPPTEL
Excerpt: Colorimetric enzyme immunoassay (EIA) kits were done to screen for the isozyme-specific inhibition.

[1] = system: TNF-α in RAW264.7 macrophage cells; assay: In vitro measurement of TNF-α in RAW264.7 macrophage cells (RT-qPCR); type: cell-based
Excerpt: Both Lipopolysaccharides (LPS) and hispidin were purchased from Sigma (Sigma-Aldrich, St. Louis, MO, USA)[40]. The foetal bovine serum (FBS) and Dulbecco’s modified Eagle’s medium (DMEM) were purchased from Hyclone (General Electric Healthcare Life Sciences, Mississauga, Canada), penicillin streptomycin (P/S) was purchased from Solarbio (Solarbio life sciences, Beijing, P. R. China). Results of all in vitro anti-inflammatory screening were obtained from the confirmatory diagnostic unit, VACSERA, Egypt.
DMEM was used to cultivate the macrophage cells RAW264.7 (Shanghai BOGO Industrial Co., Ltd., Shanghai, China), and supplemented with 10% FBS and 1% P/S (100 U/ml and […], respectively). […] They were treated with various concentrations of hispidin, then with 1 μg/ml LPS for the indicated time.
PBS (1 ml/well) was used to wash the cells in 24-well plates. […] For the experiments, CL Buffer included MgCl2 (M1028; Sigma) or RNasin Plus RNase Inhibitor (N2615; Promega). Before use, both Bio-Rad SPR and CL buffer were equilibrated to room temperature. […] Carefully, the resulting lysates were collected and either analysed immediately or stored frozen ([…]).
RT-qPCR analysis was performed in one-step SYBR Green RT-qPCR. […] A CFX96 real-time PCR instrument (Bio-Rad) was used under the following protocol: 50uC for 10 min, 95uC for 5 min, 95uC for 10 s/61uC for 15 s/72uC for 30 s.
Total RNA purified from cells was used as an RT-qPCR quantification standard.

Row | Compound | S.I (IC50 COX-1/IC50 COX-2) (COX-2) | SI (COX-2) | IC50 (5-LOX enzyme) | 5-LOX %inh (5-LOX enzyme; conc 0.1 (μM)) | 5-LOX %inh (5-LOX enzyme; conc 1 (μM)) | 5-LOX %inh (5-LOX enzyme; conc 10 (μM)) | 5-LOX %inh (5-LOX enzyme; conc 100 (μM)) | melting point | IC50 (ovine COX-1; IC50 COX-1) | COX1 %inh (ovine COX-1; conc 0.1 (μM)) | COX1 %inh (ovine COX-1; conc 1 (μM)) | COX1 %inh (ovine COX-1; conc 10 (μM)) | COX1 %inh (ovine COX-1; conc 100 (μM)) | IC50 (5-LOX enzyme; lab report) | IC50 (ovine COX-1; read-out: IC50 COX-1) | DPPH test results (µM trolox equivalent/ 1mg sample ± SD) (DPPH free radical assay) | DPPH anti-oxidant activity (DPPH free radical assay) | TNF-α fold change [1]
1 | CS(=O)(=O)n1cc(/C=N/NC(N)=O)c2ccccc21 [Compound 3a, (E)-2{[1-(methylsulfonyl)-1H-indol-3yl]methylene}hydrazinecarboxamide] | 0.78 | 0.779 | 48.8 ± 2.58 µM | 2.63% | 5.83% | 18.6% | 70.3% | 238 to 240 °C | 21.1 ± 0.6 µM | 4.87% | 12.4% | 37.8% | 71% | – | – | 5.91 ± 1.87 µM trolox equivalent/ 1mg sample | – | –
2 | CS(=O)(=O)n1cc(/C=N/N=C2/NCC(=O)S2)c2ccccc21 [Compound 5a] | 0.59 | 0.592 | 9.23 ± 0.49 µM | 7.21% | 17.4% | 50.3% | 79% | – | – | 13.6% | 32.4% | 59% | 85.6% | – | 3.95 ± 0.11 µM | 12.71 ± 1.16 µM trolox equivalent/ 1mg sample | – | 0.66
3 | CS(=O)(=O)n1cc(/C=N/N=C2\SC(=O)CN2c2ccccc2)c2ccccc21 [Compound 5c] | 3.63 | 3.628 | 79.4 ± 4.2 µM | 2.32% | 5.84% | 13% | 66.7% | 260 to 262 °C | – | 4.55% | 10.5% | 27.9% | 72.1% | – | 29.2 ± 0.83 µM | 707.52 ± 49.91 µM trolox equivalent/ 1mg sample | 707.52 µM Trolox equivalent/mg and 707.5 µM Trolox equivalent/mg | –
4 | CC(c1cc2ccccc2s1)N(O)C(N)=O (stereo not shown) [Zileuton, reference compound] | – | – | – | – | – | 77.1% | 92.8% | – | – | – | – | – | – | – | – | – | – | –

The next lines start with results.

Row | S.I (IC50 COX-1/IC50 COX-2) (COX-2) | SI (COX-2) | IC50 (5-LOX enzyme) | 5-LOX %inh (5-LOX enzyme; conc 0.1 (μM)) | 5-LOX %inh (5-LOX enzyme; conc 1 (μM)) | 5-LOX %inh (5-LOX enzyme; conc 10 (μM)) | 5-LOX %inh (5-LOX enzyme; conc 100 (μM)) | melting point | IC50 (ovine COX-1; IC50 COX-1) | COX1 %inh (ovine COX-1; conc 0.1 (μM)) | COX1 %inh (ovine COX-1; conc 1 (μM)) | COX1 %inh (ovine COX-1; conc 10 (μM)) | COX1 %inh (ovine COX-1; conc 100 (μM)) | IC50 (5-LOX enzyme; lab report) | IC50 (ovine COX-1; read-out: IC50 COX-1) | Compound | DPPH test results (µM trolox equivalent/ 1mg sample ± SD) (DPPH free radical assay) | DPPH anti-oxidant activity (DPPH free radical assay) | TNF-α fold change [1]
5 | 2.80 | 2.799 | 2.31 ± 0.12 µM | 11.4% | 43.6% | 69% | 90.3% | 178 to 180 °C | 11.3 ± 0.32 µM | 7.54% | 18.6% | 44% | 77.6% | 2.31 ± 0.12 µM | – | CS(=O)(=O)n1cc(/C=N/NC(N)=S)c2ccccc21 [Compound 4a, (E)-2{[1-(methylsulfonyl)-1H-indol-3yl]methylene}-hydrazine-1-carbothioamide] | 24.55 ± 1.61 µM trolox equivalent/ 1mg sample | – | –
6 | 3.12 | 3.116 | 4.03 ± 0.21 µM | 12.1% | 37.1% | 57.1% | 83.8% | 220 to 222 °C | 5.01 ± 0.14 µM | 11% | 24.7% | 60.6% | 83.5% | 4.03 ± 0.21 µM | – | CS(=O)(=O)n1cc(/C=N/NC(=S)Nc2ccccc2)c2ccccc21 [Compound 4c, (E)-2{[1-(methylsulfonyl)-1H-indol-3yl]methylene}-N-phenylhydrazinecarbothioamide] | 263.29 ± 12.30 µM trolox equivalent/ 1mg sample | about 263.29 µM Trolox equivalent/mg | –
7 | 9.72 and 9.73 | 9.726 | 6.65 ± 0.35 µM | 11.6% | 24.1% | 53% | 80.8% | 273 to 275 °C | – | 3.76% | 13.1% | 20% | 68.5% | 6.65 ± 0.35 µM | 47.5 ± 1.35 µM | COc1ccc(N2CC(=O)S/C2=N\N=C\c2cn(S(C)(=O)=O)c3ccccc23)cc1 [Compound 5e] | 13.22 ± 1.89 µM trolox equivalent/ 1mg sample | – | –
